The results in this text go back to PubChem BioAssay (NCI).

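Dose response: 5 concentrations. Exposure: 48 h. Format: 96-well plates. Endpoint: linear interpolation; highest concentration if not reached. The concentration for full growth arrest is given as TGI.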

Common to all, as to assay: NCI tumour cell line growth inhibition, 48 h
The subject of experiment [1] is HCT-15 colon.
Experiment [2] concerns A549 NSCLC.
Experiment [3] concerns MDA-MB-435.
For experiment [4], the system named is KM12 colon.
Experiment [5] relates to COLO 205 colon.
Experiment [6] concerns A498 renal.
In experiment [7] the test system is RPMI-8226 leukemia.
Experiment [8] concerns MOLT-4 leukemia.
In experiment [9] the test system is HOP-92 NSCLC.
The subject of experiment [10] is M14 melanoma.
The test system of experiment [11] is NCI/ADR-RES ovarian.
Experiment [12] has as its system OVCAR-5 ovarian.
Experiment [13] has as its system MALME-3M melanoma.
The test system of experiment [14] is SF-295 CNS.
The subject of experiment [15] is HCC-2998 colon.
In experiment [16] the test system is HCT-116 colon.
Experiment [17] deals with MCF7 breast.
Experiment [18] deals with SW-620 colon.
Experiment [19] deals with RXF 393 renal.
Experiment [20] has as its system HS 578T breast.

In the case of `FC(F)(Sc1ccccn1)c1nc2ccccc2o1`, the TGI in experiment [1], in experiment [2], in [3], in experiment [4], in experiment [5] and in experiment [6] was over 100 µM throughout. Also, the TGI in experiment [7], in [8], in [9], in experiment [10], in [11] and in [12] was over 100 µM throughout. Also, the TGI in [13], in experiment [14], in experiment [15], in experiment [16], in experiment [17] and in experiment [18] was over 100 µM in each case. The TGI in experiment [19] is over 100 µM.
For the compound `C=C(C)C1Cc2c(cc(O)c3c(=O)c4c(oc23)C(O)Oc2cc(OC)c(OC)cc2-4)O1` (stereo not drawn), the TGI in [1], in experiment [2], in experiment [3], in experiment [4], in [5] and in experiment [6] was over 10 µM throughout. Besides, the TGI in experiment [7], in experiment [8], in [9], in experiment [10], in experiment [11] and in experiment [12] was over 10 µM each time. The TGI in [13], in [14], in [15], in [16], in experiment [17] and in [18] was over 10 µM each time. In experiment [19], this compound displayed a TGI of over 10 µM.
Consider `c1ccc(Cc2nc(Cc3n[nH]c(Cc4ccccc4)n3)n[nH]2)cc1`, for which the TGI in experiment [1], in experiment [2], in [3], in [4], in [5] and in experiment [7] was over 100 µM in each case. The TGI in experiment [8], in [9], in experiment [10], in experiment [11], in [12] and in experiment [14] was over 100 µM each time. Moreover, the TGI in experiment [15], in experiment [16], in [17], in experiment [18], in experiment [20] and in experiment [19] was over 100 µM each time.
For the compound `Cc1nc2ccc(S(=O)(=O)Nc3ccccc3)cc2c(=O)n1NC(=O)CNc1ccccc1`, the TGI in experiment [1], in experiment [2], in experiment [3], in experiment [4], in experiment [5] and in experiment [7] was over 100 µM in each case. The TGI in experiment [8], in experiment [9], in [10], in [11], in experiment [12] and in experiment [13] was over 100 µM in each case. The TGI in experiment [14], in experiment [15], in [16], in [17], in [18] and in experiment [20] was over 100 µM each time.
In the case of `c1ccc(N=C(Nc2ccccc2)N2CCCCC2)cc1`, the TGI in experiment [1], in experiment [2], in [3], in [4], in experiment [5] and in experiment [7] was over 100 µM throughout. Further, the TGI was over 100 µM in experiment [8]; over 100 µM in [9]; 84.9 µM in experiment [10]; over 100 µM in experiment [11]; over 100 µM in experiment [12]; over 100 µM in [13]. Besides, the TGI in [14], in [16], in experiment [17], in [18] and in experiment [20] was over 100 µM each time.
For the compound `COC(=O)c1sc2ncc3c(c2c1N)CCCCCC3`, the TGI in experiment [1], in [2], in [3], in [4], in experiment [5] and in [6] was over 100 µM each time. The TGI in experiment [7], in [8], in experiment [9], in experiment [10], in experiment [11] and in experiment [12] was over 100 µM throughout. In addition, the TGI in [13], in [14], in experiment [15], in [16], in experiment [17] and in experiment [18] was over 100 µM each time. Besides, the TGI in [19] was over 100 µM.
For the compound `O=C1C(N2CCNCC2)=C(Cl)C(=O)c2ncccc21`, the TGI in [1], in experiment [2], in experiment [3], in experiment [4], in experiment [5] and in [7] was over 10 µM each time. Moreover, the TGI is over 10 µM in experiment [8]; 7.82 µM in [9]; over 10 µM in experiment [10]; over 10 µM in experiment [12]; over 10 µM in [13]; over 10 µM in experiment [14]. Further, the TGI in [15] was over 10 µM; in experiment [16], 4.36 µM; in [17], over 10 µM; in experiment [18], over 10 µM; in [20], over 10 µM; in [19], over 10 µM.
